Data taken from patent publication US12303509B2, “Compounds for the treatment of BRAF-associated diseases and disorders” (Pfizer Inc., priority 2020, dated 2025).

Legend:
[1] = test system: WM3629 cells (BRAF D594G/NRAS G12D); assay: Proliferation assay (CellTiter-Glo) in WM3629 cells; assay type: cell-based; conditions: 3-5 day incubation
Experimental: (§1) The compounds of Example 13, Example 14 and Example 126 were evaluated in a proliferation assay in two mutant BRAF Class III cell lines: NCI-H1666 (BRAF^G466V) and WM3629 cells (BRAF^D594G/NRAS^G12D). NCI-H1666 cells were obtained from the American Type Culture Collection (ATCC, Rockville, MD) and WM3629 cells were obtained from Rockland Immunochemicals (Limerick, PA). Cells were maintained in RPMI growth medium containing 10% FBS.
(§2) Cells were harvested according to standard protocols, counted, and plated onto flat-bottom, 96-well tissue culture plates (Costar #3599) at 2000-5000 cells/well in 100 μL/well of growth medium containing 10% FBS. Cells were incubated at 37° C. with 5% CO2 overnight then treated with inhibitors prepared as a 9-point, 1:3.33 fold dilution series with final compound concentrations ranging from 66 pM-10 μM and a constant DMSO concentration of 0.25%. Control wells contained 0.25% DMSO alone. After a 3-5 day incubation at 37° C., 5% CO2, cell viability was determined by adding 100 μL CellTiter-Glo® Reagent (Promega) to each well and incubated for 15 minutes at room temperature. “Day 0” controls were determined by performing CellTiter-Glo© assay on DMSO control wells at the time of compound treatment (“Day 0” control=0 POC). Luminescence was measured on a Cytation 5 plate reader (BioTek) and values were converted to POC using the following equation:
(§3) [formula] • Where: • Xmax Average DMSO Controls • Xmin Average “Day 0” DMSO Controls • IC50 values were calculated using a 4-parameter fit in XLfit software and are shown in Table A2.

[2] = MDR1 LLC-PK1 and BCRP MDCKII permeability assay: permeability coefficient (Papp); assay type: in vitro ADME
Excerpt: (§4) Final organic concentration in the assay was 1%.

[3] = test system: WM3629 cells (BRAF D594G/NRAS G12D); assay: Cellular phospho-ERK inhibition assay in WM3629 cells; assay type: cell-based; conditions: 1 hour treatment, read-out: IC50 WM3629 pERK
Experimental: as §1, with “phospho-ERK” for “proliferation”
Cells were harvested according to standard protocols, counted, and plated onto flat-bottom, 96-well tissue culture plates (Costar #3599) at 2.5×10^4 cells/well in 100 μL/well of growth medium containing 10% FBS. After an overnight incubation at 37° C. with 5% CO2 cells were treated for 1 hour at 37° C., 5% CO2 with inhibitors prepared as a 9-point, 1:3.33 fold dilution series with final compound concentrations ranging from 66 pM-10 μM and a constant DMSO concentration of 0.25%. Control wells contained either 0.25% DMSO alone (uninhibited control) or 10 μM binimetinib (complete inhibition control). The levels of phosphorylated ERK were determined using an In Cell Western protocol: following compound incubation, growth medium was discarded, and cells were fixed with 0.4% formaldehyde in PBS for 20 minutes at room temperature. Cells were permeabilized with 100% methanol for 10 minutes at room temperature. Plates were washed with PBS containing 0.05% Tween-20 and blocked for 1 hour at room temperature with LI-COR Blocking Buffer (LI-COR Biosciences; Cat. #927-40000). Plates were then incubated for 2 hours at room temperature with 50 μL of a 1:400 dilution of anti-phospho-ERK1/2 (Thr202/Tyr204) (Cell Signaling; Cat. #9101) and a 1:1000 dilution of anti-GAPDH (Millipore; Cat. #MAB374) in LI-COR blocking buffer containing 0.05% Tween-20. […] Plates were analyzed by reading on an Odyssey CLx infrared scanner. […]
[formula] • Where: • Xmax d Average Uninhibited Controls • Xmin Average Complete Inhibition Controls • IC50 values were then calculated using a 4-parameter fit in XLfit software and are shown in Table A2.

[4] = test system: NCI-H1666 (BRAF G466V) cells; assay: Proliferation assay (CellTiter-Glo) in NCI-H1666 cells; assay type: cell-based; conditions: Homo sapiens, 3-5 day incubation
Experimental: as §1, §2, §3

P-gp (MDR1) = P-gp (MDR1) (Homo sapiens (Human), UniProt P08183); assay: MDR1 LLC-PK1 permeability assay: efflux ratio; assay type: in vitro ADME; conditions: pig
Excerpt: as §4

Chain of P-gp (MDR1) (P08183 whole entry, species assumed): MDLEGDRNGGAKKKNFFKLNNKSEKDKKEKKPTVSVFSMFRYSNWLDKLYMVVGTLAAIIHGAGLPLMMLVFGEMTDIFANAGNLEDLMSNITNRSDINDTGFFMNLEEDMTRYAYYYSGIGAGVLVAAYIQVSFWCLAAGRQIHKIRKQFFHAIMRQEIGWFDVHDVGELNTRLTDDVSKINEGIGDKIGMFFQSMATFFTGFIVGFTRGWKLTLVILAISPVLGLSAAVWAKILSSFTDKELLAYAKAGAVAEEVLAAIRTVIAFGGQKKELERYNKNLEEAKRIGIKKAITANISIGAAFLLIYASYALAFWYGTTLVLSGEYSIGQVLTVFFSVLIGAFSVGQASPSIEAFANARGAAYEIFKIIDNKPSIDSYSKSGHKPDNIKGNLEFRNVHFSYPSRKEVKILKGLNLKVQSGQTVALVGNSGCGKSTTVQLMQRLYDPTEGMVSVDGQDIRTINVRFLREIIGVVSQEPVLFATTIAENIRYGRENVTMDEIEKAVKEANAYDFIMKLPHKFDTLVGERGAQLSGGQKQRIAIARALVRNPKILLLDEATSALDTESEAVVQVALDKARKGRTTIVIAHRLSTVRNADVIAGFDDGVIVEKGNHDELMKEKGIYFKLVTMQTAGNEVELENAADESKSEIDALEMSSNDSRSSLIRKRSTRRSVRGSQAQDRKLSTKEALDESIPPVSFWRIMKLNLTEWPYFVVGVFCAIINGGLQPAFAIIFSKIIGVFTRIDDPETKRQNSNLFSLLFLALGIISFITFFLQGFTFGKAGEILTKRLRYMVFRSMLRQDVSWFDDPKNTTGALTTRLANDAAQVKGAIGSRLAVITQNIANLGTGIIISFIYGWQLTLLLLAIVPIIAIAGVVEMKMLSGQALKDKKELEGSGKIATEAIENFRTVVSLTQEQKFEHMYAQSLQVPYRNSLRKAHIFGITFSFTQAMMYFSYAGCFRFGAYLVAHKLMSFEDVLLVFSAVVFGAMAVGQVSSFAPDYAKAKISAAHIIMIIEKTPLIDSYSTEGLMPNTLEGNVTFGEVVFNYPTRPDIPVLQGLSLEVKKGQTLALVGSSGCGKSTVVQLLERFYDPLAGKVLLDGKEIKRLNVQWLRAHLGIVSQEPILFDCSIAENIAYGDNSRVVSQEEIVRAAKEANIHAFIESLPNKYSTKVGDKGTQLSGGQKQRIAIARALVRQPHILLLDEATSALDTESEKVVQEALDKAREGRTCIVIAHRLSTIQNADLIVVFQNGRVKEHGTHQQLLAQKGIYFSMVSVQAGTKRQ

Cn1cnc2ccc(Nc3c(F)ccc(NS(=O)(=O)N4CC5CC4C5)c3Cl)c(F)c2c1=O [Example 13, N-(2-chloro-4-fluoro-3-((5-fluoro-3-methyl-4-oxo-3,4-dihydroquinazolin-6-yl)amino)phenyl)-2-azabicyclo[2.1.1]hexane-2-sulfonamide]
IC50 [1]: > 10000 nM | Papp at 2 h, 1 µM [2]: 32 ×10⁻⁶ cm/s | IC50 [3]: 0.7 nM | IC50 [4]: 240 nM | efflux ratio at 2 h, 1 µM (P-gp (MDR1)): 1.5

Cn1cnc2ccc(Nc3c(F)ccc(NS(=O)(=O)N4CC[C@@H](F)C4)c3Cl)c(F)c2c1=O [Example 14, (R)-N-(2-chloro-4-fluoro-3-((5-fluoro-3-methyl-4-oxo-3,4-dihydroquinazolin-6-yl)amino)phenyl)-3-fluoropyrrolidine-1-sulfonamide]
IC50 [1]: > 10000 nM | Papp at 2 h, 1 µM [2]: 28 ×10⁻⁶ cm/s | IC50 [3]: 0.2 nM | IC50 [4]: 120 nM | efflux ratio at 2 h, 1 µM (P-gp (MDR1)): 3.2
